Data from US20230146795A1, “ENHANCEMENT OF ANTI-TUMOR ACTIVITY OF SHP2 INHIBITOR PYRIMIDINONE IN COMBINATION WITH NOVEL CANCER MEDICINES IN CANCERS” (TAIHO PHARMACEUTICAL CO., LTD., priority 2020, published 2023).

How the values were obtained:
Type in all cases: cell-based
MKN45 = assay: Anti-proliferation assay (CellTiter-Glo 2.0), combination index, MKN45; conditions: for Description: combination effect
Protocol: (§1) Cell lines were obtained from ATCC or Health Science Research Resources Bank.
(§2) Each cell lines were collected by ordinary method, then suspended in indicated medium containing 10% fetal bovine serum in table 3. The number of cells seeded per well was set to 500 cells/20 μL. […] The concentration of each anti-cancer reagents set to 8 concentrations including 0 nM. After adding the medicine to the cells, the cells were further incubated at 37° C. for 3 days under 5% CO2. Cell survival rates were calculated by adding 20 μL of CellTiter-Glo(registered trademark) 2. 0 (Promega) solution to each well, incubating the cells at room temperature for 10 minutes, and then measuring the chemiluminescence intensity of each well using a plate reader (ARVO).
(§3) A combination index (CI) value at each combined concentration of the medicines was determined.

RT4 = assay: Anti-proliferation assay (CellTiter-Glo 2.0), combination index, RT4; conditions: for Description: combination effect
Protocol: as §1, §2, §3

NCI-H358 = assay: Anti-proliferation assay (CellTiter-Glo 2.0), combination index, NCI-H358
Protocol: as §1, §2, §3

[1] = Compound 1 41.2 nmol/L + Cisplatin 1110 nmol/L, molar ratio 1:27
[2] = Compound 1 123 nmol/L + Cisplatin 3330 nmol/L, molar ratio 1:27
[3] = Compound 1 370 nmol/L + Cisplatin 10000 nmol/L, molar ratio 1:27
[4] = Compound 1 4.57 nmol/L + Cisplatin 370 nmol/L, molar ratio 1:81
[5] = Compound 1 13.7 nmol/L + Cisplatin 1110 nmol/L, molar ratio 1:81
[6] = Compound 1 41.2 nmol/L + 5-FU 3330 nmol/L, molar ratio 1:81
[7] = Compound 1 123 nmol/L + 5-FU 10000 nmol/L, molar ratio 1:81
[8] = Compound 1 13.7 + combination drug 12.3 nmol/L (1:0.9)
[9] = Compound 1 41.2 + combination drug 37.0 nmol/L (1:0.9)
[10] = Compound 1 123 + combination drug 111 nmol/L (1:0.9)
[11] = Compound 1 370 + combination drug 333 nmol/L (1:0.9)
[12] = Compound 1 1110 + combination drug 1000 nmol/L (1:0.9)
[13] = Compound 1 1.52 + combination drug 1.37 nmol/L (1:0.9)
[14] = Compound 1 4.57 + combination drug 4.12 nmol/L (1:0.9)
[15] = Compound 1 41.2 + combination drug 3330 nmol/L (1:81)
[16] = Compound 1 123 + combination drug 10000 nmol/L (1:81)
[17] = Compound 1 13.7 + combination drug 1.37 nmol/L (1:0.1)
[18] = Compound 1 41.2 + combination drug 4.12 nmol/L (1:0.1)
[19] = Compound 1 123 + combination drug 12.3 nmol/L (1:0.1)
[20] = Compound 1 4.57 nmol/L + Etoposide 123 nmol/L, molar ratio 1:27
[21] = Compound 1 13.7 nmol/L + Etoposide 370 nmol/L, molar ratio 1:27
[22] = Compound 1 41.2 nmol/L + Etoposide 1110 nmol/L, molar ratio 1:27
[23] = Compound 1 123 nmol/L + FTD 3330 nmol/L, molar ratio 1:27
[24] = Compound 1 370 nmol/L + FTD 10000 nmol/L, molar ratio 1:27
[25] = Compound 1 370 nmol/L + FTD 123 nmol/L, molar ratio 1:0.3
[26] = Compound 1 1110 nmol/L + FTD 370 nmol/L, molar ratio 1:0.3
[27] = Compound 1 3330 nmol/L + FTD 1110 nmol/L, molar ratio 1:0.3
[28] = Compound 1 13.7 + combination drug 111 nmol/L (1:8.1)
[29] = Compound 1 41.2 + combination drug 333 nmol/L (1:8.1)
[30] = Compound 1 123 + combination drug 1000 nmol/L (1:8.1)

For `N.N.[Cl][Pt][Cl]` [Cisplatin], the CI (MKN45; [1]) was 0.694, the Fa (MKN45; [1]) was 0.2057 and the CI (MKN45; [2]) was 0.626. It also gave a Fa (MKN45; [2]) of 0.5148, a CI (MKN45; [3]) of 0.681 and a Fa (MKN45; [3]) of 0.8006. The Description (MKN45; Compound 1 + Cisplatin, molar ratio 1:27) was “Synergy (0.3-0.7)”, the CI (RT4; [4]) was 0.632 and the Fa (RT4; [4]) was 0.0886. For the same compound, the CI (RT4; [5]) was 0.539, the Fa (RT4; [5]) was 0.2585 and the Description (RT4; Compound 1 + Cisplatin, molar ratio 1:81) was “Synergy (0.3-0.7)”.
In the case of `O=c1[nH]cc(F)c(=O)[nH]1` [Compound 5-FU], the CI (MKN45; [6]) is reported as 0.738, the Fa (MKN45; [6]) is reported as 0.4610 and the CI (MKN45; [7]) is reported as 0.399. For the same compound, the Fa (MKN45; [7]) was 0.7197 and the Description (MKN45; Compound 1 + 5-FU, molar ratio 1:81) was “Synergy (0.3-0.7)”.
`Cc1nc(Nc2ncc(C(=O)Nc3c(C)cccc3Cl)s2)cc(N2CCN(CCO)CC2)n1` [Dasatinib] showed a CI (NCI-H358; [8]) of 0.342, a Fa (NCI-H358; [8]) of 0.2486 and a CI (NCI-H358; [9]) of 0.208. For the same compound, the Fa (NCI-H358; [9]) was 0.4351, the CI (NCI-H358; [10]) was 0.119 and the Fa (NCI-H358; [10]) was 0.7042. The CI (NCI-H358; [11]) was 0.227, the Fa (NCI-H358; [11]) was 0.7700 and the CI (NCI-H358; [12]) was 0.633. It also gave a Fa (NCI-H358; [12]) of 0.7795, a CI (RT4; [13]) of 0.804 and a Fa (RT4; [13]) of 0.1983. For the same compound, the CI (RT4; [14]) was 0.356, the Fa (RT4; [14]) was 0.3708 and the CI (RT4; [8]) was 0.147. For the same compound, the Fa (RT4; [8]) was 0.5917, the CI (RT4; [9]) was 0.207 and the Fa (RT4; [9]) was 0.6714. It also gave a CI (RT4; [10]) of 0.096, a Fa (RT4; [10]) of 0.8271 and a CI (RT4; [11]) of 0.192. The Fa (RT4; [11]) was 0.8517, the CI (RT4; [12]) was 0.229 and the Fa (RT4; [12]) was 0.8974.
Work on `COc1cc(OC)cc(N(CCNC(C)C)c2ccc3ncc(-c4cnn(C)c4)nc3c2)c1` [Erdafitinib] yielded a CI (NCI-H358; [15]) of 0.768, a Fa (NCI-H358; [15]) of 0.3851 and a CI (NCI-H358; [16]) of 0.681. The Fa (NCI-H358; [16]) was 0.7532, the “Description (combinatory effect by CI)” value (NCI-H358; Compound 1:combination drug molar ratio 1:81) was “Synergy (0.3-0.7)” and the CI (RT4; [17]) was 0.602. For the same compound, the Fa (RT4; [17]) was 0.3659, the CI (RT4; [18]) was 0.124 and the Fa (RT4; [18]) was 0.6028. It also gave a CI (RT4; [19]) of 0.129 and a Fa (RT4; [19]) of 0.6985.
In the case of `COc1cc([C@@H]2c3cc4c(cc3[C@@H](O[C@@H]3O[C@@H]5CO[C@@H](C)O[C@H]5[C@H](O)[C@H]3O)[C@H]3COC(=O)[C@H]23)OCO4)cc(OC)c1O` [Etoposide], the CI (RT4; [20]) is reported as 0.460, the Fa (RT4; [20]) is reported as 0.0637 and the CI (RT4; [21]) is reported as 0.373. It also gave a Fa (RT4; [21]) of 0.2820, a CI (RT4; [22]) of 0.432 and a Fa (RT4; [22]) of 0.5945. The Description (RT4; Compound 1 + Etoposide, molar ratio 1:27) was “Synergy (0.3-0.7)”.
For `O=c1[nH]c(=O)n([C@H]2C[C@H](O)[C@@H](CO)O2)cc1C(F)(F)F` [FTD], the CI (MKN45; [23]) was 0.716, the Fa (MKN45; [23]) was 0.6654 and the CI (MKN45; [24]) was 0.494. The Fa (MKN45; [24]) was 0.8785, the Description (MKN45; Compound 1 + FTD, molar ratio 1:27) was “Synergy (0.3-0.7)” and the CI (RT4; [25]) was 0.468. The Fa (RT4; [25]) was 0.4667, the CI (RT4; [26]) was 0.676 and the Fa (RT4; [26]) was 0.6009. The CI (RT4; [27]) was 0.618, the Fa (RT4; [27]) was 0.7931 and the Description (RT4; Compound 1 + FTD, molar ratio 1:0.3) was “Synergy (0.3-0.7)”.
Work on `COc1cc2ncnc(Nc3ccc(F)c(Cl)c3)c2cc1OCCCN1CCOCC1` [Gefitinib] yielded a CI (NCI-H358; [28]) of 0.311, a CI (NCI-H358; [29]) of 0.370 and a CI (NCI-H358; [30]) of 0.724. The “Description (combinatory effect by CI)” value (NCI-H358; Compound 1:combination drug molar ratio 1:8.1) was “Synergy (0.3-0.7)”, the CI (RT4; [28]) was 0.205 and the CI (RT4; [29]) was 0.352. For the same compound, the CI (RT4; [30]) was 0.445.
